In US8058467B2, “Prostaglandin derivatives” (Nicox S.A., priority 2004, dated 2011):

Tests used:
[1] = tested on: rat pheochromocytoma cells (PC12); assay: cGMP accumulation in PC12 cells (nitric oxide-mediated activity); type: cell-based; settings: for EC50: Rattus norvegicus, PC-12, 0.75 h, 30 μM YC-1, read-out: EC50 (effective concentration producing half maximal response), cGMP accumulation
Procedure: The formation of cyclic guanosine-3′,5′ monophosphate (cGMP) in cells in the eye is involved in the regulation of aqueous humor flow. Thus, elevation of cGMP levels leads to decreased aqueous humor production and reduction of intraocular pressure.
We measured the effects of test drugs on cGMP formation in a well established cell assay.
Undifferentiated pheochromocytoma cells (PC12) were used. The monolayer cells were incubated for 45 min in Hank's Balanced Salt Solution enriched with 10 mM Hepes, 5 mM MgCl2 and 0.05% ascorbic acid at the final pH of 7.4 and containing 100 μM of the phosphodiesterase inhibitor, isomethyl-butyl-xanthine (IBMX), 30 μM of the guanylyl cyclase […], YC-1, and the test drugs at the appropriate concentration. The reaction was terminated by the removal of the incubating buffer followed by the addition of […] of 100% ice-cold ethanol. The plate was then dried under hot air steam and the residue dissolved, extracted and analysed using commercially available cyclic cGMP enzyme immunoassay kit.

[2] = tested on: carbomer-evoked increase in IOP; assay: Intraocular pressure in carbomer-treated rabbits; type: in vivo, rabbit
Procedure: (§1) Male NZW rabbits ranging from 3-5 kgs of body weight were used in this study. Briefly, the ability of Latanoprost nitroderivative (compound 4, EXAMPLE 3) at reducing intraocular pressure (IOP) was tested in animals previously treated with intracameral injection of 0.25% carbomer solution installation until after a stable increase of the intraocular pressure was reached. In this particular study, test drugs were administered to one eye with the dosage schedule of 1 drop/eye/day for 5 days a week with a physiologic solution containing 0.005% of control or test compounds. The IOP was monitored 3 h after drug application, two-three times weekly for a total of 4 weeks. This concentration was chosen as it reflects that of latanoprost isopropyl ester currently used in clinic to treat the increase of IOP observed in glaucoma patients. Furthermore, at each visit, about 200 μl of aqueous humor was collected using a 30 gauge needle from both eyes under lidocaine anesthesia for further biochemical evaluation of cGMP, camp and nitrite/nitrate contents.

[3] = tested on: aqueous humor cGMP, cAMP and NOx; assay: cGMP, cAMP and NOx content of aqueous humor in carbomer-treated rabbits; type: in vivo, rabbit; settings: for NOx / cAMP / cGMP: aqueous humor; for NOx in intraocular aqueous humor (in words) / cGMP in intraocular aqueous humor (in words) / intraocular cAMP (in words): over the 4-week treatment
Procedure: as §1

[4] = 45 min, 100 μM IBMX, 30 μM YC-1
[5] = Day 2, 0.005% solution, 1 drop/eye/day, 3 h after application
[6] = Day 7, 0.005% solution, 1 drop/eye/day, 3 h after application
[7] = Day 10, 0.005% solution, 1 drop/eye/day, 3 h after application
[8] = Day 15, 0.005% solution, 1 drop/eye/day, 3 h after application
[9] = Day 17, 0.005% solution, 1 drop/eye/day, 3 h after application
[10] = Day 23, 0.005% solution, 1 drop/eye/day, 3 h after application
[11] = Day 25, 0.005% solution, 1 drop/eye/day, 3 h after application
[12] = Pre-treatment (baseline after intracameral 0.25% carbomer)

Row | Structure (SMILES) | Emax (maximum effect), cGMP accumulation [1, 4] | EC50 ([1]; 45 min, 100 μM IBMX) | IOP [2, 5] | IOP [2, 6] | IOP [2, 7] | IOP [2, 8] | IOP [2, 9] | IOP [2, 10] | IOP [2, 11] | IOP [2, 12] | NOx ([3]; I Week) | cAMP ([3]; I Week) | cGMP ([3]; I Week) | NOx ([3]; II Week) | cAMP ([3]; II Week) | cGMP ([3]; II Week) | NOx ([3]; III Week) | cAMP ([3]; III Week) | cGMP ([3]; III Week) | NOx ([3]; IV Week) | other results
1 | O=C(CCC/C=C\C[C@@H]1[C@@H](CC[C@@H](O)CCc2ccccc2)[C@H](O)C[C@@H]1O)OCCCCO[N+](=O)[O-] (relative stereo) [Compound 1, [1R-[1α(Z),2α(R*),3α,5α]]-7-[3,5-dihydroxy-2-(3-hydroxy-5-phenylpentyl)cyclopentyl]-5-heptenoic acid 4-(nitrooxy)butyl ester] | 290 % over vehicle | 2400 nM | – | – | – | – | – | – | – | – | – | – | – | – | – | – | – | – | – | – | –
2 | O=C(CCC/C=C\C[C@@H]1[C@@H](CC[C@@H](O)CCc2ccccc2)[C@H](O)C[C@@H]1O)Oc1cccc(CO[N+](=O)[O-])c1 (relative stereo) [Compound 4, [1R-[1α(Z),2β(R*),3α,5α]]-7-[3,5-dihydroxy-2-(3-hydroxy-5-phenylpentyl)cyclopentyl]-5-heptenoic acid 3-(nitrooxymethyl)phenyl ester] | 450 % over vehicle | 4400 nM | 31 ± 1 mmHg | 26 ± 1 mmHg | 20 ± 1 mmHg | 18 ± 2 mmHg | 16 ± 1 mmHg | 15 ± 1 mmHg | 14 ± 1 mmHg | 42 ± 2 mmHg | 22 ± 2 nmol/mg prot | 600 ± 25 fmol/mg prot | 102 ± 5 fmol/mg prot | 25 ± 3 nmol/mg prot | 650 ± 31 fmol/mg prot | 125 ± 5 fmol/mg prot | 26 ± 3 nmol/mg prot | 680 ± 28 fmol/mg prot | 140 ± 5 fmol/mg prot | 28 ± 3 nmol/mg prot | decrease of intraocular pressure ([2]; by the end of the study (4 weeks)): over 65%; decrease of intraocular pressure ([2]; within 7 days of repeated treatments): about 50%; cAMP ([3]; IV Week): 660 ± 22 fmol/mg prot; cGMP ([3]; IV Week): 160 ± 5 fmol/mg prot; NOx ([3]; Pre-treatment): 17 ± 1 nmol/mg prot; cAMP ([3]; Pre-treatment): 520 ± 20 fmol/mg prot; cGMP ([3]; Pre-treatment): 88 ± 5 fmol/mg prot; NOx in intraocular aqueous humor (in words) [3]: increased; cGMP in intraocular aqueous humor (in words) [3]: increased; intraocular cAMP (in words) [3]: remained unaltered
3 | COc1cc(/C=C/C(=O)OCCCCO[N+](=O)[O-])ccc1OC(=O)CCC/C=C\C[C@@H]1[C@@H](CC[C@@H](O)CCc2ccccc2)[C@H](O)C[C@@H]1O (relative stereo) [Compound 11, [1R-[1α(Z), 2β(R*),3α,5α]]-7-[3,5-dihydroxy-2-(3-hydroxy-5-phenylpentyl)cyclopentyl]-5-heptenoicacid[2-methoxy-4-[2-propenoyloxy(4-nitrooxybutyl)]]phenyl ester] | 480 % over vehicle | 1500 nM | – | – | – | – | – | – | – | – | – | – | – | – | – | – | – | – | – | – | –
4 | CC(C)OC(=O)CCC/C=C\C[C@@H]1[C@@H](CC[C@@H](O)CCc2ccccc2)[C@H](O)C[C@@H]1O [Latanoprost isopropyl ester, reference compound] | – | – | 34 ± 2 mmHg | 33 ± 3 mmHg | 30 ± 1 mmHg | 31 ± 2 mmHg | 30 ± 2 mmHg | 32 ± 2 mmHg | 30 ± 2 mmHg | 37 ± 2 mmHg | 18 ± 2 nmol/mg prot | 550 ± 22 fmol/mg prot | 88 ± 6 fmol/mg prot | 18 ± 1 nmol/mg prot | 600 ± 30 fmol/mg prot | 98 ± 6 fmol/mg prot | 19 ± 2 nmol/mg prot | 620 ± 31 fmol/mg prot | 99 ± 6 fmol/mg prot | 19 ± 2 nmol/mg prot | change of intraocular pressure (in words) ([2]; 0.005% solution, 1 drop/eye/day, 4 weeks): nor its isopropyl derivative elicited any appreciable change; cAMP ([3]; IV Week): 625 ± 31 fmol/mg prot; cGMP ([3]; IV Week): 100 ± 6 fmol/mg prot; NOx ([3]; Pre-treatment): 16 ± 1 nmol/mg prot; cAMP ([3]; Pre-treatment): 510 ± 18 fmol/mg prot; cGMP ([3]; Pre-treatment): 87 ± 6 fmol/mg prot; NOx in intraocular aqueous humor (in words) [3]: did not significantly affect; cGMP in intraocular aqueous humor (in words) [3]: did not significantly affect; intraocular cAMP (in words) [3]: did not significantly affect
5 | CC(C)OC(=O)CCC/C=C\C[C@@H]1[C@@H](CC[C@@H](O)CCc2ccccc2)[C@H](O)C[C@@H]1O [Latanoprost, reference compound] | Not effective | – | – | – | – | – | – | – | – | – | – | – | – | – | – | – | – | – | – | – | cGMP accumulation (in words) ([1]; 1-50 μM): not shared; EC50 (effective concentration producing half maximal response), cGMP accumulation [1, 4]: Not effective
